Test [1] deals with HCT116 (CTC). In words: proliferation assay, HCT116 colon tumor cells. Type of test: cell-based, human. To be noted: folate-/glycine-free RPMI1640 with 25 nM leucovorin, 96 h, read-out: IC50s (SE) HCT116 (CTC). As to the method: (§1) Proliferation assays were performed with engineered Chinese hamster ovary (CHO) cell lines R2 (transporter-null), PC43-10 (expresses RFC only), RT16 (FRα only), and R2/PCFT4 (PCFT only) cultured in folate-/glycine-free RPMI1640 supplemented with 25 nM leucovorin. Additional results are shown for HCT116 (colon tumor cells (CTC)), IGROV1 (epithelial ovarian cancer (EOC) cells), H460 (non-small cell lung cancer (NSCLC) cells), MIAPaCa-2 (pancreatic cancer (PaC) cells), and HPAC (PaC).
Cell culture and proliferation/protection assays. The HCT116 cell lines including the serine hydroxymethyltransferase (SHMT) 1, SHMT2, and methylene THF dehydrogenase 2 (MTHFD2) knockout (KO) cells were previously described (47,53). The H460 cell line was obtained from the American Type Culture Collection (Manassas, VA), whereas the MIA PaCa-2 cells were provided by Dr. Yubin Ge (Karmanos Cancer Institute). Cell lines were verified by STR analysis by Genetica DNA Laboratories (Burlington, NC). MTXRIIOua^R2-4 (i.e. R2) Chinese hamster ovary (CHO) cells were generously provided by Dr. Wayne Flintoff (University of Western Ontario) (54). From this parental R2 cell line, human RFC and PCFT were individually transfected to generate the isogenic CHO cell lines designated PC43-10 (RFC) and R2/PCFT4 (PCFT) (55-57). Human tumor cell lines were cultured in folate-free RPMI supplemented with 10% dialyzed fetal bovine serum (Sigma-Aldrich), 1% penicillin/streptomycin solution, 2 mM L-glutamine, and 25 nM leucovorin in a humidified atmosphere at 37° C. in the presence of 5% CO2 and 95% air. The CHO cell lines were cultured in alpha-minimal essential medium (alpha-MEM) supplemented with 10% bovine calf serum, 1% penicillin/streptomycin solution, and 2 mM L-glutamine. Additionally, the transfected CHO cell lines (i.e. R2/PCFT4 and PC43-10) were maintained under continuous selection with 1 mg/ml of G418. […]

Test [2] relates to RT16 (FR alpha) (CHO). In words: proliferation assay, RT16 CHO cells expressing FR alpha only. Type of test: cell-based, Chinese hamster. To be noted: folate-/glycine-free RPMI1640 with 25 nM leucovorin, 96 h, read-out: IC50s (SE) RT16 (FR alpha) (CHO). As to the method: as §1
(§2) For proliferation assays with the CHO cell lines, the cells were treated with drugs (0-1 µM) in a 96-well plate (2000 cells/well) in glycine-free, nucleoside-free folate-free RPMI supplemented with 10% dialyzed fetal bovine serum, 1% penicillin/streptomycin, 2 mM L-glutamine, and 25 nM leucovorin (final volume 200 µL) over a 96 h incubation period at 37° C. with 5% CO2. The drugs were dissolved in DMSO; an equivalent amount of DMSO was added to the control (no addition) samples. To quantify viable cells, the media was removed and plates were washed once with 100 µL Dulbecco’s Phosphate-Buffered Saline (PBS), after which 100 µL PBS and 20 µL Cell Titer-blue (Promega) were added. Relative cell numbers were proportional to the fluorescence measured with a fluorescence plate reader (590 nm emission, 560 nm excitation). Background fluorescence (cell-free wells treated with Cell Titer-blue) was subtracted and these corrected values were normalized to results for cells treated in an identical manner without drugs.

Test [3] has as its system PC43-10 (RFC) (CHO). As to the kind of experiment: proliferation assay, PC43-10 CHO cells expressing RFC only. Type of test: cell-based, Chinese hamster. To be noted: folate-/glycine-free RPMI1640 with 25 nM leucovorin, 96 h, drug 0-1000 nM, read-out: IC50s (SE) PC43-10 (RFC) (CHO). As to the method:
as §1
(§3) Cell culture and proliferation/protection assays. The HCT116 cell lines including the serine hydroxymethyltransferase (SHMT) 1, SHMT2, and methylene THF dehydrogenase 2 (MTHFD2) knockout (KO) cells were previously described (47,53). The H460 cell line was obtained from the American Type Culture Collection (Manassas, VA), whereas the MIA PaCa-2 cells were provided by Dr. Yubin Ge (Karmanos Cancer Institute). Cell lines were verified by STR analysis by Genetica DNA Laboratories (Burlington, NC). MTXRIIOua^R2-4 (i.e. R2) Chinese hamster ovary (CHO) cells were generously provided by Dr. Wayne Flintoff (University of Western Ontario) (54). From this parental R2 cell line, human RFC and PCFT were individually transfected to generate the isogenic CHO cell lines designated PC43-10 (RFC) and R2/PCFT4 (PCFT) (55-57). Human tumor cell lines were cultured in folate-free RPMI supplemented with 10% dialyzed fetal bovine serum (Sigma-Aldrich), 1% penicillin/streptomycin solution, 2 mM L-glutamine, and 25 nM leucovorin in a humidified atmosphere at 37° C. in the presence of 5% CO2 and 95% air. The CHO cell lines were cultured in alpha-minimal essential medium (alpha-MEM) supplemented with 10% bovine calf serum, 1% penicillin/streptomycin solution, and 2 mM L-glutamine. Additionally, the transfected CHO cell lines (i.e. R2/PCFT4 and PC43-10) were maintained under continuous selection with 1 mg/ml of G418.
as §2, with “The drugs were dissolved in DMSO; an equivalent amount of DMSO was added to the control (no addition) samples.” left out

Test [4] relates to MIA PaCa-2 (PaC). As to the kind of experiment: proliferation assay, MIA PaCa-2 pancreatic cancer cells. Type of test: cell-based, human. To be noted: folate-/glycine-free RPMI1640 with 25 nM leucovorin, 96 h, read-out: IC50s (SE) MIA PaCa-2 (PaC). Here is the method: as §1, §3
For proliferation assays of the HCT116, H460, and MIA PaCa2 tumor cell lines, the cells were plated in 96-well plates in an identical manner to the CHO experiments, except that the maximal drug concentration was increased to 10 µM. Glycine/nucleoside protection experiments in CHO and tumor cell lines were performed in folate- and glycine-free RPMI 1640/10% dialyzed fetal bovine serum supplemented with 25 nM leucovorin without additions, or in the presence of adenosine (60 µM), thymidine (10 µM), glycine (130 µM) and/or 5-aminoimidazole-4-carboxamide (AICA) (320 µM). Growth of metabolite-treated cells was normalized to controls treated with metabolites and vehicle (i.e., DMSO) both singly and in combination. Treatments with all metabolites were performed in parallel on the same plate for a given drug.

In US20230091810A1, “FIRST-IN-CLASS OF SHMT2 AND MTHFD2 INHIBITORS AS ANTITUMOR AGENTS” (Duquesne University of the Holy Spirit, priority 2017, published 2023) one finds IC50 data, which are given here for three compounds.

Where two headings read alike, the source gives them in different places. Where only a bound is given, the exact number is not on record here.

As for `Nc1nc2ccn(CCCc3ccc(C(=O)N[C@@H](CCC(=O)O)C(=O)O)cc3)c2c(=O)[nH]1` [AGF291], the IC50 in test [1] (Homo sapiens, HCT-116) amounted to 2.27 µM; in test [2] (Cricetulus griseus, RT16), 0.117 µM; in test [3] (Cricetulus griseus, PC43-10) it was 0.454 µM; in test [4] (Homo sapiens, MIA PaCa-2), 3.66 µM.
With `Nc1nc2ccn(CCCCCc3ccc(C(=O)N[C@@H](CCC(=O)O)C(=O)O)s3)c2c(=O)[nH]1` [AGF320], the IC50 in test [1] was 0.737 µM; in test [2] it was 0.156 µM; in test [3], over 1 µM; in test [4] it was 2.27 µM.
Take “(2-amino-4-oxo-3,4-dihydro-5H-pyrrolo[3,2-d]pyrimidin-5-yl)butyl)-2-fluorobenzoyl)-L-glutamic acid [AGF347]”: the IC50 worked out at 0.437 µM in test [1], 0.0094 µM in test [2], 0.224 µM in test [3] and 1.38 µM in test [4].
